The source of these data is patent US20020102280A1, “Solvent systems for pharmaceutical agents” (priority 2000, published 2002).

Read-outs that look alike come from different tables or passages of the source.

For series [1] the following is noted: oral, intramuscular and intraperitoneal routes; cited from earlier work.
The conditions of series [2]: cited from earlier work.
For series [3] the following is noted: cited from earlier work. The source holds these as a separate data set.
A short description of another series: physchem. An excerpt:
Approximately 0.17 gm of Epikuron 200, 0.7 gm essential oil of sweet basil, 0.25 gm of water, and 0.25 gm of glycerol were mixed and the mixture centrifuged.
In this experiment, essential oils of ginger and sweet basil were combined to solubilize the bioactive compound ubiquinone (a coenzyme Q10) in a phospholipid-rich reversed liquid crystal.

Series [4] can be described thus: Solubilizing paclitaxel in essential oils.
The conditions of series [5]: free base form; cited from earlier work.
The conditions of series [6]: water-solubilized hydrochloride form; cited from earlier work.

With `C=CC(C)(O)CCC=C(C)C` (stereo not drawn) [Linalool, linalool], the toxicity result in series [1] is “extremely low toxicity”.

Regarding `O=C1CN(/N=C/c2ccc(-c3ccc([N+](=O)[O-])cc3)o2)C(O)=N1` [Dantrolene, dantrolene], the solubility in water result in series [2] (listed as dantrolene) is given as “approximately 150 mg/L”. Besides, the “solubility in simple phospholipid-water systems” value in series [3] is given as “very low”.

Consider `O=C1CN(/N=C/c2ccc(-c3ccc([N+](=O)[O-])cc3)o2)C(O)=N1` [Dantrolene sodium, dantrolene sodium], for which the “solubilization in reversed cubic phase” value in the series “physchem” was “free of dantrolene crystals”. Further, the “dissolution in reversed cubic liquid crystalline phase” value in “physchem” (Experiment 10: 3 mg in Epikuron 200/ascorbyl palmitate/gentisic acid/aminocaproic acid/ethanolamine/water + oil of ginger) is recorded as “dissolved”. Moreover, in series [2], the solubility in water is around 300 µg/mL.

As to `COC1=C(OC)C(=O)C(C/C=C(\C)CC/C=C(\C)CC/C=C(\C)CC/C=C(\C)CC/C=C(\C)CC/C=C(\C)CC/C=C(\C)CC/C=C(\C)CC/C=C(\C)CCC=C(C)C)=C(C)C1=O` [Coenzyme Q10, ubiquinone], in the series “physchem”, the “solubilization in reversed bicontinuous cubic phase” value is given as “solubilized” and the “solubilization in reversed cubic phase” value is “fully solubilized”.

In “physchem” (oil or lipid), `CC(=O)O[C@H]1C(=O)[C@@]2(C)[C@H]([C@H](OC(=O)c3ccccc3)[C@]3(O)C[C@H](OC(=O)[C@H](O)[C@@H](NC(=O)c4ccccc4)c4ccccc4)C(C)=C1C3(C)C)[C@]1(OC(C)=O)CO[C@@H]1C[C@@H]2O` [Paclitaxel, paclitaxel] registered a solubility of at least 5000 µg/mL. For the same molecule, the “Paclitaxel solubility (w/w, approx)” value is on record as around 16% in series [4] (in oil of bay); above 10% in series [4] (in palmarosa oil); above 5% in series [4] (in peppermint oil); around 7% in series [4] (in sweet basil oil); around 10% in series [4] (in thyme oil).

`CCCCN1CCCCC1C(=O)Nc1c(C)cccc1C` (stereo not drawn) [bupivicaine]: the “solubilization in liquid crystal (reversed cubic phase)” value in “physchem” is “solubilized”. For the same molecule, in series [5], the “KOW (octanol-water partition coefficient)” value is on record as “approximately 1500”.

For the molecule `N.[Cl][Pt][Cl].c1cscn1` [trans-[Pt(II)Cl2(NH3)(thiazole)]], the “level solubilized in reversed cubic phase” value in the series “physchem” was “about 2.4%”.

With `CCCCN1CCCCC1C(=O)Nc1c(C)cccc1C.Cl` (stereo not drawn) [bupivicaine hydrochloride], in series [6], the therapeutic half life entry was “only a few hours”.

In general, solubility refers to the dissolved amount per volume that the medium holds.
